Holding throughout (assay): NCI-60 cell line screen, 48 h
For assay [1], the system named is CAKI-1 renal.
Assay [2] deals with DU-145 prostate.
The subject of assay [3] is UO-31 renal.
The subject of assay [4] is PC-3 prostate.
Assay [5] deals with NCI-H522 lung.
The subject of assay [6] is MDA-MB-435.

For 13 compounds, GI50 and TGI results are on record in PubChem BioAssay (NCI).

Several values for one entry are separate records, joined by “and”; a condition that tells them apart may be missing. Equal entries are not always repeated.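 Five concentrations, 48 hours, 96-well plates. Abbreviation: GI50, concentration required for 50% inhibition of growth. TGI is the concentration that stops growth completely.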

As to `COc1cc(NCCCCN=C(N)NC(N)=NC(C)C)c2ncccc2c1`, the GI50 in assay [1] is greater than 100 µM; in assay [2], 21 µM; in assay [3] it was 99 µM; in assay [4], 2.22 µM; in assay [5], 0.929 µM; in assay [6] it was 12.9 µM. The TGI in assay [1] was greater than 100 µM; in assay [2] it was greater than 59.9 µM; in assay [3] it was greater than 100 µM; in assay [4], 16.8 µM; in assay [5], 3.93 µM; in assay [6] it was 26.7 µM.

Take `CC(=O)c1ccc(NC(=O)CSc2nnc(-c3cc(-c4ccc(C)cc4)nc4ccccc34)o2)cc1`: the GI50 was 4.52 µM in assay [2], 1.75 µM in assay [3], 4.36 µM in assay [4] and 2.39 µM in assay [5]. Further, the TGI was greater than 100 µM in assay [2], 4.5 µM in assay [3], greater than 100 µM in assay [4] and 9.06 µM in assay [5].

For the compound `CCOC(=O)c1sc2nc3sc(N=Nc4ccc(Cl)cc4)c(O)n3c(=S)c2c1C`, the GI50 in assay [1] was 28.1 µM; in assay [2], 31.2 µM; in assay [3], 53.6 µM; in assay [4], 21.3 µM; in assay [5], 38.8 µM; in assay [6], 35.2 µM. The TGI in assay [1] was 57.3 µM; in assay [2], greater than 100 µM; in assay [3], greater than 100 µM; in assay [4], greater than 100 µM; in assay [5] it was greater than 100 µM; in assay [6] it was greater than 100 µM.

For `CC(=O)N1CC(Nc2ccc(OC(F)(F)F)cc2)=CC1=O`, the GI50 is 3.05 µM in assay [1]; 3.76 µM in assay [2]; 19.4 µM in assay [3]; 2.99 µM in assay [4]; 1.8 µM in assay [5]; 0.195 µM in assay [6]. Also, the TGI is greater than 100 µM in assay [1]; greater than 100 µM in assay [2]; greater than 100 µM in assay [3]; greater than 100 µM in assay [4]; 5.75 µM in assay [5]; 0.439 µM in assay [6].

With `CCOc1ccc([C@@H]2[C@@H](Oc3ccccc3)C(=O)N2c2cc(OC)c(OC)c(OC)c2)cc1`, the GI50 in assay [2] was 0.218 µM; in assay [3] it was 0.613 µM; in assay [4], 0.0706 µM; in assay [5], 0.0323 µM. Besides, the TGI was greater than 100 µM in assay [2], greater than 100 µM in assay [3], greater than 100 µM in assay [4] and 0.371 µM in assay [5].

With `CCCCCCCC/C=C/CCCCCCCCC1=NCCN1CCO`, the GI50 in assay [1] was 3.61 µM; in assay [2], 7.28 µM; in assay [3], 1.76 µM; in assay [4], 2.61 µM; in assay [5] it was 6.34 µM; in assay [6] it was 1.87 µM. Also, the TGI was 14.8 µM in assay [1]; 19.6 µM in assay [2]; 3.75 µM in assay [3]; 9.14 µM in assay [4]; 25.9 µM in assay [5]; 3.91 µM in assay [6].

`CCCCCC(O)C1C(=O)OC(C)C(O)/C=C/C=C/C=C/C=C\C=C(\C)C(O)CC(O)CC(O)CC(O)CC(O)CC(O)CC1O` (stereo not drawn): the GI50 in assay [1], in assay [2], in assay [3], in assay [4], in assay [5] and in assay [6] was greater than 100 µM throughout. For the same compound, the TGI in assay [1], in assay [2], in assay [3], in assay [4], in assay [5] and in assay [6] was greater than 100 µM in each case.

`COC(=O)c1ccc2c(c1)nc(-c1cc3ccccc3[nH]c1=O)n2-c1cc(C(C)(C)C)[nH]n1`: the GI50 in assay [1] was 1.24 µM; in assay [2], 2.55 µM; in assay [3] it was 0.526 µM; in assay [4] it was 2.27 µM; in assay [5], 1.19 µM. For the same compound, the TGI is greater than 95.1 µM in assay [1]; greater than 100 µM in assay [2]; greater than 100 µM in assay [3]; greater than 100 µM in assay [4]; greater than 100 µM in assay [5].

For the compound `COc1cc(C(=O)/C=C/c2cc(C(=O)c3cc(OC)c(OC)c(OC)c3)ccc2OC)ccc1N`, the GI50 in assay [1] was 0.669 µM; in assay [2], 1.03 µM; in assay [3], 0.762 µM; in assay [4], 1.8 µM; in assay [6], 1.19 µM. Besides, the TGI in assay [1] was 19.4 µM; in assay [2], 4.59 µM; in assay [3], 2.12 µM; in assay [4] it was 7.4 µM; in assay [6], greater than 100 µM.

As for `CC1/C=C/C=C/C=C/C=C/C=C/C=C/C=C/C(O[C@@H]2O[C@H](C)[C@H](O)[C@@H](O)[C@@H]2N)CC(O)C(C(=O)O)C(O)CC(=O)CC(O)CC(O)CC(O)CC(=O)CCCC(=O)CC(=O)OC1C(C)CC(C)C(O)CC(=O)c1ccc(N)cc1` (stereo partly drawn), the GI50 is 0.0583 µM and 0.186 µM in assay [1]; 0.0687 µM and 0.335 µM in assay [2]; 0.0456 µM and 0.159 µM in assay [3]; 0.0646 µM and 0.222 µM in assay [4]; 0.0512 µM and 0.161 µM in assay [5]; 0.0597 µM and 0.208 µM in assay [6]. The TGI was 0.107 µM and 0.357 µM in assay [1]; 0.148 µM and 1.06 µM in assay [2]; 0.0882 µM and 0.328 µM in assay [3]; 0.137 µM and 0.552 µM in assay [4]; 0.0986 µM and 0.314 µM in assay [5]; 0.108 µM and 0.438 µM in assay [6].

Regarding `N#Cc1c(-c2ccc(Cl)cc2)n(O)c2ccccc12`, the GI50 in assay [1] is 1.95 µM; in assay [2], 3.75 µM; in assay [3], 2.6 µM; in assay [4], 2.85 µM; in assay [5] it was 2.11 µM; in assay [6], 0.29 µM. Further, the TGI in assay [1] is 5.2 µM; in assay [2], greater than 100 µM; in assay [3], 9.24 µM; in assay [4] it was 20.2 µM; in assay [5] it was 6.32 µM; in assay [6] it was 1.26 µM.

For the compound `COc1cc2c(cc1OCCOS(C)(=O)=O)N=C[C@@H]1CCCN1C2=O`, the GI50 is 17.7 µM in assay [1], 15.2 µM in assay [3] and 10.9 µM in assay [5]. Also, the TGI in assay [1] was 32.1 µM; in assay [2], greater than 100 µM; in assay [3] it was 33.1 µM; in assay [5] it was 30.1 µM; in assay [6], 37.7 µM.

Consider `C1CCN(CCC2CCCCN2)CC1` (stereo not drawn), for which the TGI in assay [1], in assay [2], in assay [4], in assay [5] and in assay [6] was greater than 100 µM each time.
